Laboratory results published in publication PMC11968560 (Proteins, 2024).

Target: T1, PfGrp94 (Plasmodium falciparum glucose-regulated protein 94 kDa, endoplasmin) (Plasmodium falciparum, UniProt Q8I0V4)
T1 sequence (Q8I0V4 22-821): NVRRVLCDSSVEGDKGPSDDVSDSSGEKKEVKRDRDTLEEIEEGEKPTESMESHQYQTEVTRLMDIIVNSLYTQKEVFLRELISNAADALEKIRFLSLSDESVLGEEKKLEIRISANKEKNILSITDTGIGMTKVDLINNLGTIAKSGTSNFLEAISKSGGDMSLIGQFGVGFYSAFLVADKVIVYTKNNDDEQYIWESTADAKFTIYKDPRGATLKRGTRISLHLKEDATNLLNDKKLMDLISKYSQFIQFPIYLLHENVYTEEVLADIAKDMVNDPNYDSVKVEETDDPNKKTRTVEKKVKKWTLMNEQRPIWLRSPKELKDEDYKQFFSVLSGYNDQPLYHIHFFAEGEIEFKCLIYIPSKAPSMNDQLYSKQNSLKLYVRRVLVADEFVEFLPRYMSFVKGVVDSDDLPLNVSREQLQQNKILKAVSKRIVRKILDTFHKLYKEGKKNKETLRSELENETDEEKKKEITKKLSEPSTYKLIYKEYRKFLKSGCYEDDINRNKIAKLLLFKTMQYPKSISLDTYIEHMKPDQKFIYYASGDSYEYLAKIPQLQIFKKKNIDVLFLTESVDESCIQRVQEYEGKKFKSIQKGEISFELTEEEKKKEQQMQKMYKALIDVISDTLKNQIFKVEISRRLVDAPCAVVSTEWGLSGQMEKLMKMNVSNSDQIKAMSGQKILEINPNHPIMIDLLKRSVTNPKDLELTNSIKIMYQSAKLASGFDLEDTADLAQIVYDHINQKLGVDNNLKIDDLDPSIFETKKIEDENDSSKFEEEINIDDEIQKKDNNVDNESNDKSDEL
Test: malachite green ATPase inhibition
Format: biochemical

CCNC(=O)[C@H]1O[C@@H](n2cnc3c(N)ncnc32)[C@H](O)[C@@H]1O [NECA]
EC50: 3.53 ± 1.5 µM
